According to patent US20080026067A1, “Method for Increasing Specific Surface Area of Slightly Soluble Drug” (priority 2004, published 2008):

Assays:
Format in all cases: physicochemical
[1] = Specific surface area of the powder, multipoint BET method
Protocol: A specific surface area of a powder of the compound A obtained by the above-described methods and the following Examples can be measured by known method, for example, multipoint BET method.
A specific surface area of the compound A was adjusted to give the crystalline powders with different specific surface area by the following method. As well, the measurement of specific surface area was performed by multipoint BET method.

[2] = Accelerated test (storage stability: purity by HPLC, degree of moisture by Karl Fisher); details: for Degree of moisture (%) / Purity (%): crushing composition
Protocol: 1 g of the powder of compound A was poured into the two-lay plastic bag and closed firmly with banding band. This was poured into miniature fiber dram and then this was preserved in the stability tester under the condition for 6 months, at 40° C., at 75% relative humidity. And then, the purity (quantitative value) and the degree of moisture (%) of the powder of compound A were measured. The measurement of the degree of moisture was performed by known method: the moisture vaporization method/Karl Fisher electrometrical titration method. The measurement of purity was performed by high performance liquid chromatography (HPLC).
About 0.04 mg/mL N,N-dimethylformamide/acetontirile (3/7) solution of reference material and measurement sample of compound A was prepared. In this case, the concentration of the solutions was precisely found. These solutions was set under the below test condition and the purity of measurement sample was calculated from the obtained area value of the peak.
• The detector: ultraviolet absorptiometer (measurement wavelength: 278 nm), • The column: YMC-Pack ODS-A-302 (inside diameter 4.6 mm, length 15 cm), • The mobile phase: acetonitrile/5 mmol/L sodium acetate buffer (It was prepared to pH 4.5 using acetate.)/2-propanol mixture (5/4/1), • The flow: The retention time of the compound A was prepared to be about 12 minutes (about 1.0 mL/min), • The column temperature: the constant temperature in the vicinity of 40° C. • The injection volume: 20 μL.

[3] = Measurement of bulk density
Protocol: A bulk density of a powder of the compound A is preferably in the range of about 0.05 to about 0.3 g/cm^3, and more preferably in the range of about 0.05 to about 0.2 g/cm^3. A bulk density can be measured by known method. It includes, for example, the method that about 3 g sample is precisely weighed, it is put into dried 50 mL graduated cylinder (scale: by 0.1 mL) without consolidation, it reads to minimum unit of scale and value that the weight (g) of particulate is divided by the volume (cm^3) of particulate is assumed bulk density (g/cm^3), and method described in the following Examples and so on.
About 3 g of compound A is precisely weighed, it is put into dried 50 mL graduated cylinder (scale: by 0.1 mL) without consolidation, it reads to minimum unit of scale. The value that the weight (g) of particulate is divided by the volume (cm^3) of particulate is assumed bulk density (g/cm^3). As a result, the bulk density of the powder of compound A prepared in Adjustment Example 4(3) was 0.18 g/cm^3 (non-crushing composition) and […] (crushing composition). The bulk density of compound A prepared in Adjustment Example 4(4) was 0.18 g/cm^3 (non-crushing composition) and 0.08 g/cm^3 (crushing composition).

[4] = Measurement of tap density; details: tapped 3 minutes at 60 times/minute
Protocol: A tap density of a powder of the compound A is preferably in the range of about 0.1 to about 0.4 g/cm^3, and more preferably in the range of about 0.1 to about 0.3 g/cm^3. A tap density can be measured by known method. It includes, for example, the method that about 3 g sample is precisely weighed, it is put into dried 50 mL graduated cylinder (scale: by 0.1 mL) without consolidation, the graduated cylinder is set on tapping machine for tap density, then it is tapped for 3 minutes at 60 times/minute, final tap density is found, and value that the weight (g) of particulate is divided by final tap density (cm^3) of particulate is assumed tap density (g/cm^3), and method described in the following Examples and so on.
About 3 g of the powder of compound A is precisely weighed, it is put into dried 50 mL graduated cylinder (scale: by 0.1 mL) without consolidation, the graduated cylinder is set on tapping machine for tap density, then it is tapped for 3 minutes at 60 times/minute, final tap density is found. The value that the weight (g) of particulate is divided by final bulk density (cm^3) of particulate is assumed tap density (g/cm^3). As a result, the tap density of the powder of compound A prepared in Adjustment Example 4(3) was 0.28 g/cm^3 (non-crushing composition) and 0.13 g/cm^3 (crushing composition). The tap density of tie powder of compound A prepared in Adjustment Example 4(4) was 0.23 g/cm^3 (non-crushing composition) and 0.16 g/cm^3 (crushing composition).[

[5] = Dissolution test (Japanese Pharmacopoeia method 2, Paddle method); details: pH 6.8 McIlvaine buffer, 2.0% (w/v) sodium lauryl sulfate, 900 mL, 37°C, 50 rpm, 30 mg
Protocol: In the present invention, the dissolution rate in the dissolution test, according to dissolution test method 2 (Paddle method) of general test in the Japanese Pharmacopoeia, is the value that the method is performed on condition that 50 rounds per minute in pH6.8 McIlvaine buffer solution including 2.0% (w/v) sodium lauryl sulfate. More detail, it includes the method described in the following method or the method pursuant thereof and so on.
The powder of compound A prepared in the above described Preparation Example 4 (specific surface area=12.51 m^2/g) and Preparation Example 6 (specific surface area=5.46 m^2/g) was sieved by 60 mesh sieve (250 μm) respectively and the sieved material was weighed out 30 mg and then poured into the test solution. The dissolution test was performed under the below described condition of the dissolution test. However, the compound A was suspended with about 2 mL test solution and then the compound A poured into the test solution. The eluate 10 mL obtained at each sampling time was filtrated with membrane filter having 0.45 μm pore diameter. The first filtrate 2 mL was removed and the rest of filtrate was as the solution of test material. The compound A prepared in Preparation Example 12 was precisely weighed out about 33.3 mg and it was dissolved by adding methanol to adjust 100 mL. Among this solution, 5 mL was weighed out and it was added by test solution to adjust 50 mL. It was made as the standard solution (0.0333 mg/mL) that […] of the compound A was dissolved. The absorbance of the solution of test material and standard solution in wavelength 278 nm was measured by the measurement of ultraviolet visible absorbance respectively and according to the below formula, the dissolution rate was found.
The Dissolution Test Condition:
• Apparatus: The Japanese Pharmacopoeia, general test, dissolution test method 2 (Paddle method), • Test solution; McIlvaine buffer solution containing of 2.0% (w/v) sodium lauryl sulfate, pH 6.8 • Test solution volume: 900 mL • Temperature: 37±0.5° C. • Rotation speed: 50 rotations per minute • Sampling volume of eluate: 10 mL • Sampling time: 5, 10, 15, 30, 45, 60 and 90 minutes. [formula] [formula] • W: The volume of compound A containing of standard solution (33.3 mg) • t: The number of sampling • C: The volume of compound A poured into the test solution (30 mg) • Ct: The concentration of compound A in the solution of test material at t times sampling • ΣCn: The sum of the concentration of compound A in the solution of test material from n=1 to t−1 • At: The absorbance of the solution of test material • As: The average of absorbance of the […] of repeated measurement at three times • V: The volume of the test solution (900 mL) • v: The sampling volume of the eluate (10 mL)

[6] = crushing composition (jet mill crushed)
[7] = 6 months at 40°C, 75% relative humidity
[8] = over 6 months at 40°C, 75% relative humidity

## Cc1ccc(-c2nc(CCOc3cccc4c3CCC=C4CCC(=O)O)c(C)o2)cc1 [Adjustment Example 1, 3-(5-{2-[5-methyl-2-(4-methylphenyl)-1,3-oxazol-4-yl]ethoxy}-3,4-dihydronaphthalen-1-yl)propanoic acid]
[1]; powder as obtained
  specific surface area: 42.24 m^2/g

## Cc1ccc(-c2nc(CCOc3cccc4c3CCC=C4CCC(=O)O)c(C)o2)cc1 [Adjustment Example 2, 3-(5-{2-[5-methyl-2-(4-methylphenyl)-1,3-oxazol-4-yl]ethoxy}-3,4-dihydronaphthalen-1-yl)propanoic acid]
[1]; powder as obtained
  specific surface area: 20.43 m^2/g

## Cc1ccc(-c2nc(CCOc3cccc4c3CCC=C4CCC(=O)O)c(C)o2)cc1 [Adjustment Example 3, 3-(5-{2-[5-methyl-2-(4-methylphenyl)-1,3-oxazol-4-yl]ethoxy}-3,4-dihydronaphthalen-1-yl)propanoic acid]
[1]; [6]
  specific surface area: 20.6 m^2/g
[1]; non-crushing composition
  specific surface area: 19.6 m^2/g
[2]; 0 month
  Degree of moisture (%): 0.3%
  Purity (%): 95.4%
[2]; [7]
  Degree of moisture (%): 0.6%
  Purity (%): 94.4%
[2]; [8]
  change (increase) of degree of moisture: 0.3%
  decrease of purity: 1.0%

## Cc1ccc(-c2nc(CCOc3cccc4c3CCC=C4CCC(=O)O)c(C)o2)cc1 [Adjustment Example 4(1), 3-(5-{2-[5-methyl-2-(4-methylphenyl)-1,3-oxazol-4-yl]ethoxy}-3,4-dihydronaphthalen-1-yl)propanoic acid]
[1]; powder as obtained
  specific surface area: 6.7 m^2/g

## Cc1ccc(-c2nc(CCOc3cccc4c3CCC=C4CCC(=O)O)c(C)o2)cc1 [Adjustment Example 4(2), 3-(5-{2-[5-methyl-2-(4-methylphenyl)-1,3-oxazol-4-yl]ethoxy}-3,4-dihydronaphthalen-1-yl)propanoic acid]
[1]; powder as obtained
  specific surface area: 17.8 m^2/g

## Cc1ccc(-c2nc(CCOc3cccc4c3CCC=C4CCC(=O)O)c(C)o2)cc1 [Adjustment Example 4(3), 3-(5-{2-[5-methyl-2-(4-methylphenyl)-1,3-oxazol-4-yl]ethoxy}-3,4-dihydronaphthalen-1-yl)propanoic acid]
[1]; [6]
  specific surface area: 12.7 m^2/g
[1]; non-crushing composition
  specific surface area: 11.0 m^2/g
[3]; crushing composition
  bulk density: 0.8 g/mL
[3]; non-crushing composition
  bulk density: 0.18 g/mL
[4]; crushing composition
  tap density: 0.13 g/mL
[4]; non-crushing composition
  tap density: 0.28 g/mL

## Cc1ccc(-c2nc(CCOc3cccc4c3CCC=C4CCC(=O)O)c(C)o2)cc1 [Adjustment Example 4, 3-(5-{2-[5-methyl-2-(4-methylphenyl)-1,3-oxazol-4-yl]ethoxy}-3,4-dihydronaphthalen-1-yl)propanoic acid]
[1]; powder as obtained
  specific surface area: 12.51 m^2/g
[5]; 0 minutes
  Dissolution rate (%): 0.00%
[5]; 5 minutes
  Dissolution rate (%): 65.46%
[5]; 10 minutes
  Dissolution rate (%): 76.67%
[5]; 15 minutes
  Dissolution rate (%): 82.17%
[5]; 30 minutes
  Dissolution rate (%): 88.95%
[5]; 45 minutes
  Dissolution rate (%): 92.15%
[5]; 60 minutes
  Dissolution rate (%): 94.10%
[5]; 90 minutes
  Dissolution rate (%): 96.20%

## Cc1ccc(-c2nc(CCOc3cccc4c3CCC=C4CCC(=O)O)c(C)o2)cc1 [Adjustment Example 5, 3-(5-{2-[5-methyl-2-(4-methylphenyl)-1,3-oxazol-4-yl]ethoxy}-3,4-dihydronaphthalen-1-yl)propanoic acid]
[1]; powder as obtained
  specific surface area: 5.00 m^2/g

## Cc1ccc(-c2nc(CCOc3cccc4c3CCC=C4CCC(=O)O)c(C)o2)cc1 [Adjustment Example 6, 3-(5-{2-[5-methyl-2-(4-methylphenyl)-1,3-oxazol-4-yl]ethoxy}-3,4-dihydronaphthalen-1-yl)propanoic acid]
[1]; powder as obtained
  specific surface area: 5.46 m^2/g
[5]; 0 minutes
  Dissolution rate (%): 0.00%
[5]; 5 minutes
  Dissolution rate (%): 32.3%
[5]; 10 minutes
  Dissolution rate (%): 41.7%
[5]; 15 minutes
  Dissolution rate (%): 48.0%
[5]; 30 minutes
  Dissolution rate (%): 58.5%
[5]; 45 minutes
  Dissolution rate (%): 64.3%
[5]; 60 minutes
  Dissolution rate (%): 68.0%

## Cc1ccc(-c2nc(CCOc3cccc4c3CCC=C4CCC(=O)O)c(C)o2)cc1 [Compound A, 3-(5-{2-[5-methyl-2-(4-methylphenyl)-1,3-oxazol-4-yl]ethoxy}-3,4-dihydronaphthalen-1-yl)propanoic acid]
[1]; powder as obtained
  specific surface area: 2.4 m^2/g
